Source: US8569308B2, “Substituted heteroarylamine carboxamide analogs as mGluR5 negative allosteric modulators and methods of making and using the same” (Vanderbilt University, priority 2009, dated 2013)

Molecular target: rat mGluR5 (Rattus norvegicus, UniProt P31424)
Experiment: cell-based
Description: The cells were loaded with a Ca2+-sensitive fluorescent dye (e.g., Fluo-4), and the plates were washed and placed in the FDSS instrument. Test compound was applied to cells 3 seconds after baseline readings were taken. Cells were incubated with the test compounds for 140 seconds and then stimulated with an EC20 concentration of an mGluR5 agonist (e.g., glutamate, 3,5-dihydroxyphenylglycine, or quisqualate); 60-80 seconds later an EC80 concentration of agonist was added and readings taken for an additional 40 seconds. Data were collected at 1 Hz. […] Concentration response curves were generated using a four parameter logistical equation.
The above described assay was operated in two modes. In the first mode (utilizing a triple add protocol), a range of concentrations of the present compounds were added to cells, followed by two single fixed concentrations of agonist (EC20 followed by EC80). If a compound acted as a potentiator, an EC50 value for potentiation of the EC20 response and a maximum extent of potentiation by the compound at this concentration of agonist was determined by non-linear curve fitting. If a compound acted as an antagonist, an IC50 value for antagonism of the EC80 response and a maximum extent of antagonism by the compound at this concentration of agonist was determined by non-linear curve fitting. In the second mode (utilizing a double add protocol), several fixed concentrations of the present compounds were added to various wells on a plate, followed by a range of concentrations of agonist for each concentration of present compound; the EC50 values for the agonist at each concentration of compound were determined by nonlinear curve fitting. A decrease in the EC50 value of the agonist with increasing concentrations of the present compounds (a leftward shift of the agonist concentration-response curve) is an indication of the degree of mGluR5 positive allosteric modulation at a given concentration of the present compound. An increase in the EC50 value of the agonist with increasing concentrations of the present compounds (a rightward shift of the agonist concentration response curve) is an indication of the degree of mGluR5 antagonism at a given concentration of the present compound. The second mode also indicates whether the present compounds also affect the maximum response to mGluR5 to agonists.
The mGluR5 activity was determined using the metabotropic glutamate receptor activity assays in human embryonic kidney cells as described herein, wherein the human embryonic kidney cells were transfected with rat mGluR5. The mGluR5 activity data for some compounds are shown as the average of at least three experiments with the standard error in these cases. If no error is indicated for the mGluR5 activity, the values given represent the results from a single experiment or the average of two experiments.

Chain of rat mGluR5 (P31424 21-1203): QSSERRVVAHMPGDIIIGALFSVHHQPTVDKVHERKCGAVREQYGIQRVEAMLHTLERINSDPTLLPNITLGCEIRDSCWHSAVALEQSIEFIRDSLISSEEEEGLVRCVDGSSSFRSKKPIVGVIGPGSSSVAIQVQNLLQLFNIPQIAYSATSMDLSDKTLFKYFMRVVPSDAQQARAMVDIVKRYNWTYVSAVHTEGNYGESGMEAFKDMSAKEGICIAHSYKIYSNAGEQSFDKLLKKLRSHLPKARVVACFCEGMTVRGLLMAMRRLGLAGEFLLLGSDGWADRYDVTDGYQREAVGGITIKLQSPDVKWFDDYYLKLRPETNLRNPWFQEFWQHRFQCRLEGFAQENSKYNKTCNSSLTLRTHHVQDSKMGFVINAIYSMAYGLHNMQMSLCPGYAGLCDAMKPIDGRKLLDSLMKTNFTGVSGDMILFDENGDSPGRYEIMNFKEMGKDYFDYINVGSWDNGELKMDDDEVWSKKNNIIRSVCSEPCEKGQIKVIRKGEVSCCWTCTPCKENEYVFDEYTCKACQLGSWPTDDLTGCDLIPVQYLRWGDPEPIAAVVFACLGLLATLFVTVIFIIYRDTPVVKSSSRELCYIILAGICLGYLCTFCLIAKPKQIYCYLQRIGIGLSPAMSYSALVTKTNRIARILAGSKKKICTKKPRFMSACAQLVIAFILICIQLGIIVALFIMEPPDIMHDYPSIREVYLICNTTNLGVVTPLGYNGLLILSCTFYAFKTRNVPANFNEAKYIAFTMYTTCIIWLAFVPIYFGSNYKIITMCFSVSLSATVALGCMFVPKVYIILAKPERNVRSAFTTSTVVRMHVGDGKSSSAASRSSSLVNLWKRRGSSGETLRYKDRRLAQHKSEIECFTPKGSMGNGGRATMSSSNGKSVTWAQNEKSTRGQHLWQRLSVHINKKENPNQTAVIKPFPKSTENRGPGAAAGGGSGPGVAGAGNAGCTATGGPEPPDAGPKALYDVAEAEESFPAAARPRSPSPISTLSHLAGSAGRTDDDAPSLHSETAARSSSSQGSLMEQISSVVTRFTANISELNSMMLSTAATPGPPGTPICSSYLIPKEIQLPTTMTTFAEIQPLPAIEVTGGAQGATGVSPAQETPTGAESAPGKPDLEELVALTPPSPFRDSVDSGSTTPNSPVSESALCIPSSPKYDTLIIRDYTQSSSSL

SMILES	IC50 [nM]
CN(c1cncnc1)c1ccnc(NC(=O)c2cccc(Br)c2)c1	162
Cc1cccc(C(=O)Nc2cccc(Oc3cncnc3)n2)c1	87
Cc1cccc(C(=O)Nc2cccc(Oc3ccc(C(F)(F)F)nc3)n2)c1	> 30000
Cc1cccc(C(=O)Nc2cncc(Oc3cccnc3)n2)c1	166
O=C(Nc1cncc(Oc2cncnc2)c1)c1cscn1	> 10000
O=C(Nc1cncc(Oc2cncnc2)c1)c1cccc(C(F)(F)F)n1	> 30000
CCN(c1cncnc1)c1cncc(NC(=O)c2cccc(C#N)c2)c1	1790
N#Cc1cncc(C(=O)Nc2cncc(Oc3cncnc3)c2)c1	> 10000
N#Cc1cccc(C(=O)Nc2cncc(Oc3cccnc3)n2)c1	460
Cc1cccc(C(=O)Nc2cncc(Oc3ccc(C(F)(F)F)nc3)n2)c1	> 10000
O=C(Nc1cncc(Oc2cncnc2)c1)c1cccc(F)n1	> 30000
N#Cc1cccc(C(=O)Nc2cccc(Oc3cccnc3)n2)c1	266
O=C(Nc1cncc(Oc2cncnc2)c1)c1cccc(F)c1	> 10000
O=C(Nc1ccnc(Oc2cccnc2)c1)c1cccc(Cl)c1	1120
Cc1cccc(C(=O)Nc2cccc(Oc3cncnc3)n2)n1	> 30000
Cc1ccc(Oc2cncc(NC(=O)c3cccc(C)n3)n2)cn1	> 30000
N#Cc1cccc(C(=O)Nc2cccc(Oc3ccc(C(F)(F)F)nc3)n2)c1	> 30000
O=C(Nc1cncc(Oc2cccnc2)n1)c1cccc(Cl)c1	100 ± 12
O=C(Nc1cncc(Oc2cncnc2)c1)c1cc(Cl)ccc1F	927
CN(c1cncnc1)c1ccnc(NC(=O)c2cccc(C#N)c2)c1	2260

Other lines, results leading:

IC50 [nM]	SMILES
> 10000	O=C(Nc1ccnc(Oc2cccnc2)c1)c1cccc(Br)c1
> 30000	Cc1cccc(C(=O)Nc2cncc(Oc3cccnc3)n2)n1
271	N#Cc1cccc(C(=O)Nc2cccc(Oc3cncnc3)n2)c1
> 10000	Cc1cccc(C(=O)Nc2cncc(Oc3ccc(C)nc3)n2)c1
> 30000	Cc1cccc(C(=O)Nc2cccc(Oc3ccc(C(F)(F)F)nc3)n2)n1
123	CN(c1cccnc1)c1ccnc(NC(=O)c2cccc(Br)c2)c1
500	N#Cc1cccc(C(=O)Nc2cncc(Oc3cccnc3)c2)c1
> 30000	Cc1cccc(C(=O)Nc2cncc(Oc3ccc(C(F)(F)F)nc3)n2)n1
> 10000	N#Cc1csc(C(=O)Nc2cncc(Oc3cncnc3)c2)c1
> 10000	Cc1ccc(Oc2cncc(NC(=O)c3cccc(Cl)c3)n2)cn1
